Test results as given in ChEMBL document CHEMBL1201862, “PubChem BioAssay data set” (2004).
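Method: 48-hour compound exposure of cells in 96-well plates, five concentrations, linear interpolation of endpoints. The concentration for 50% growth inhibition is given as GI50.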 Active and inactive are the calls of the source. Rule as the data show it: active = GI50 up to about 1.1 µM and inactive = higher.

What was measured:
Test in all cases: DTP human tumour cell line panel, 48 h
786-0 = test system: 786-0
A549 = test system: A549
ACHN = test system: ACHN
COLO 205 = test system: COLO 205
DMS-114 = test system: DMS-114
HCT-15 = test system: HCT-15
HOP-62 = test system: HOP-62
KM12 = test system: KM12
LOX IMVI = test system: LOX IMVI
M14 = test system: M14
Malme-3M = test system: Malme-3M
NCI-H226 = test system: NCI-H226
NCI-H23 = test system: NCI-H23
NCI-H522 = test system: NCI-H522
SF-268 = test system: SF-268
SK-OV-3 = test system: SK-OV-3
UACC-62 = test system: UACC-62
HOP-92 = test system: HOP-92
A498 = test system: A498
T47D = test system: T47D

Row | SMILES | GI50 (786-0) | GI50 (A549) | GI50 (ACHN) | GI50 (COLO 205) | GI50 (DMS-114) | GI50 (HCT-15) | GI50 (HOP-62) | GI50 (KM12) | GI50 (LOX IMVI) | GI50 (M14) | GI50 (Malme-3M) | GI50 (NCI-H226) | GI50 (NCI-H23) | GI50 (NCI-H522) | GI50 (SF-268) | GI50 (SK-OV-3) | GI50 (UACC-62) | GI50 (HOP-92) | GI50 (A498) | GI50 (T47D)
1 | [O-][S+]1c2ccccc2N=C(c2ccc3ccccc3c2)CC1C1=CC=CCC1 (stereo not given) | 16 µM (inactive) | 26.3 µM (inactive) | 19 µM (inactive) | 20.5 µM (inactive) | 15.2 µM (inactive) | 16.7 µM | 19.1 µM (inactive) | 14.9 µM (inactive) | 15.4 µM (inactive) | 18.7 µM (inactive) | 27.4 µM (inactive) | 19.4 µM (inactive) | 14.6 µM (inactive) | 16.9 µM (inactive) | 25.8 µM (inactive) | 30.5 µM (inactive) | 15.7 µM (inactive) | – | – | –
2 | CC(C)(C)c1cc(C(O)(C(F)(F)F)C(F)(F)F)c2c(c1)C(C(F)(F)F)(C(F)(F)F)OC(C)(C(C)(C)C)N2 (stereo not given) | 3.34 µM (inactive) | 3.59 µM (inactive) | 3.06 µM (inactive) | 2.05 µM (inactive) | 2.74 µM (inactive) | 3.83 µM | – | 3.94 µM (inactive) | – | 0.653 µM (active) | 6.65 µM (inactive) | 2.27 µM (inactive) | 2 µM (inactive) | 1.82 µM (inactive) | – | 2.25 µM (inactive) | 3.58 µM (inactive) | < 0.01 µM (active) | – | –
3 | c1cnc2c(c1)-n1cccc1C1(CCOCC1)NN2 | > 100 µM (inactive) | > 100 µM (inactive) | > 100 µM (inactive) | > 100 µM (inactive) | > 100 µM (inactive) | > 100 µM | – | > 100 µM (inactive) | – | > 100 µM (inactive) | > 100 µM (inactive) | > 100 µM (inactive) | > 100 µM (inactive) | > 100 µM (inactive) | > 100 µM (inactive) | > 100 µM (inactive) | – | > 100 µM (inactive) | > 100 µM (inactive) | –
4 | O=C1CCCCCCC2=C1C(Sc1ccccc1)CC2 (stereo not given) | 17.7 µM (inactive) | 45.5 µM (inactive) | 36.1 µM (inactive) | 62.8 µM (inactive) | 23.7 µM (inactive) | 31.7 µM | > 100 µM (inactive) | 23.2 µM (inactive) | 15.8 µM (inactive) | 45.9 µM (inactive) | > 100 µM (inactive) | 29.5 µM (inactive) | 33.9 µM (inactive) | 18.5 µM (inactive) | 19.9 µM (inactive) | 83 µM (inactive) | 36.1 µM (inactive) | – | – | –
5 | Fc1ccc2c(c1)cc1ccc3cccc4ccc2c1c34 | > 100 µM (inactive) | > 100 µM (inactive) | > 100 µM (inactive) | > 100 µM (inactive) | > 100 µM (inactive) | – | > 100 µM (inactive) | > 100 µM (inactive) | > 100 µM (inactive) | > 100 µM (inactive) | > 100 µM (inactive) | > 100 µM (inactive) | > 100 µM (inactive) | > 100 µM (inactive) | > 100 µM (inactive) | > 100 µM (inactive) | > 100 µM (inactive) | > 100 µM (inactive) | > 100 µM (inactive) | –
6 | CC12CO[C@@](C)(CC(S(=O)(=O)c3ccccc3)C1)O2 (stereo not given in full) | > 100 µM (inactive) | > 100 µM (inactive) | > 100 µM (inactive) | > 100 µM (inactive) | > 100 µM (inactive) | > 100 µM | > 100 µM (inactive) | > 100 µM (inactive) | – | > 100 µM (inactive) | > 100 µM (inactive) | – | > 100 µM (inactive) | > 100 µM (inactive) | > 100 µM (inactive) | > 100 µM (inactive) | > 100 µM (inactive) | > 100 µM (inactive) | – | –
7 | C/C(=C\C(C[C@](C)(O)C(O)CCC#C[Si](C)(C)C)S(=O)(=O)c1ccccc1)CC/C=C/CO[Si](C)(C)C(C)(C)C (stereo not given in full) | 17 µM (inactive) | 15 µM (inactive) | 16 µM (inactive) | – | 15.2 µM (inactive) | 17.4 µM | 21.4 µM (inactive) | 16.8 µM (inactive) | 13.2 µM (inactive) | 17.9 µM (inactive) | 20.7 µM (inactive) | 22.1 µM (inactive) | 18.2 µM (inactive) | 16.2 µM (inactive) | – | 22.6 µM (inactive) | 17.4 µM (inactive) | 11.9 µM (inactive) | 17.5 µM (inactive) | –
8 | O=C(Nc1ncc([N+](=O)[O-])s1)c1ccccc1O [TIZOXANIDE] | 24.4 µM (inactive) | 19.3 µM (inactive) | 18.7 µM (inactive) | 15.2 µM (inactive) | – | 19.1 µM | 20 µM (inactive) | 15.3 µM (inactive) | 24.6 µM (inactive) | 20 µM (inactive) | 12.9 µM (inactive) | 7.55 µM (inactive) | 12.5 µM (inactive) | 3.13 µM (inactive) | 13.6 µM (inactive) | 12.2 µM (inactive) | 4.66 µM (inactive) | 2.74 µM (inactive) | 8.75 µM (inactive) | 28.3 µM (inactive)
